Consider eight compounds from PubChem BioAssay (NCI).

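In this assay, cells in 96-well plates receive the compound at five concentrations for 48 hours. Endpoints are linearly interpolated between the surrounding concentrations. GI50 marks 50% less growth. TGI: concentration producing complete growth inhibition.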

Test systems include UACC-62 melanoma; OVCAR-4 ovarian; HCT-15 colon; SK-MEL-28 melanoma; U251 CNS; OVCAR-8 ovarian; SNB-19 CNS; MCF7 breast; SF-539 CNS; SN12C renal.
Common to all, as to test: growth of human tumour cells (NCI), 48 h

For `CC1(C)Cc2c(Br)c(Br)c(Br)c(OCC(O)CN3CCOCC3)c2O1` (stereo not given), the GI50 in the assay on UACC-62 melanoma was 13.8 µM; with OVCAR-4 ovarian, 19.3 µM; in the assay on HCT-15 colon, 13.7 µM; in the assay with SK-MEL-28 melanoma, 15 µM; in the assay with U251 CNS it was 13.7 µM; in the assay on OVCAR-8 ovarian, 11.3 µM. The GI50 was 13.4 µM with SNB-19 CNS, 13.4 µM in the assay with MCF7 breast, 12.5 µM in the assay with SF-539 CNS and 17.4 µM with SN12C renal. The TGI in the assay on UACC-62 melanoma was 27.5 µM; in the assay on OVCAR-4 ovarian it was above 100 µM; with HCT-15 colon, 26.8 µM; in the assay on SK-MEL-28 melanoma, 31.9 µM; in the assay with U251 CNS, 27.9 µM; in the assay on OVCAR-8 ovarian, 35.4 µM. Also, the TGI in the assay on SNB-19 CNS was found to be 26.4 µM; with MCF7 breast it was 29 µM; with SF-539 CNS it was 26 µM; with SN12C renal, 33.5 µM.
For `Cc1ccc2[nH]c(C(=O)NN3C(=O)C(C)SC34CCCCC4C)c(-c3ccccc3)c2c1` (stereo not given), the GI50 with UACC-62 melanoma was 13.4 µM; in the assay with OVCAR-4 ovarian, 15.9 µM; in the assay on HCT-15 colon, 18 µM; in the assay with SK-MEL-28 melanoma, 19.4 µM; in the assay with U251 CNS, 16.1 µM; with OVCAR-8 ovarian, 20.9 µM. Moreover, the GI50 in the assay on SNB-19 CNS is 27 µM; in the assay on MCF7 breast, 23.1 µM; in the assay on SF-539 CNS, 22.3 µM; with SN12C renal, 15.7 µM. Moreover, the TGI in the assay with UACC-62 melanoma is 28.3 µM; in the assay with OVCAR-4 ovarian, 36.1 µM; with HCT-15 colon it was 38.5 µM; in the assay on SK-MEL-28 melanoma, 38.8 µM; with U251 CNS, 32.8 µM; in the assay on OVCAR-8 ovarian it was 43.2 µM. Besides, the TGI in the assay with SNB-19 CNS is 77.5 µM; with MCF7 breast, above 100 µM; with SF-539 CNS, 44.9 µM; in the assay with SN12C renal, 31.6 µM.
`Cc1ccc(C[P+](c2ccccc2)(c2ccccc2)c2ccccc2)cc1`: the GI50 was 0.907 µM with UACC-62 melanoma; 0.768 µM in the assay on OVCAR-4 ovarian; 11.7 µM in the assay on HCT-15 colon; 0.987 µM in the assay with SK-MEL-28 melanoma; 0.628 µM in the assay with U251 CNS; 0.781 µM in the assay on OVCAR-8 ovarian. The GI50 is 2.18 µM with SNB-19 CNS, 0.701 µM in the assay with MCF7 breast, 2.15 µM with SF-539 CNS and 1.79 µM in the assay with SN12C renal. Also, the TGI in the assay on UACC-62 melanoma is 14.1 µM; with OVCAR-4 ovarian it was above 100 µM; in the assay with HCT-15 colon it was above 73.1 µM; with SK-MEL-28 melanoma it was 10.6 µM; with U251 CNS, above 39.3 µM; in the assay on OVCAR-8 ovarian, 4.65 µM. In addition, the TGI was above 39.5 µM in the assay with SNB-19 CNS, above 33 µM in the assay on MCF7 breast, above 46.4 µM in the assay with SF-539 CNS and 23.7 µM in the assay with SN12C renal.
As for `CC(C)=CC1CC(C)C2(CCC3(C)CC4C(C(=O)CC4(C)O)/C(C=O)=C\CC32)O1` (stereo not given), the TGI worked out at 0.368 µM in the assay on UACC-62 melanoma; 0.147 µM with OVCAR-4 ovarian; 0.105 µM in the assay with HCT-15 colon; 0.277 µM in the assay on SK-MEL-28 melanoma; 0.197 µM in the assay with U251 CNS; 0.214 µM with OVCAR-8 ovarian. Besides, the TGI in the assay on SNB-19 CNS came to 0.607 µM; with MCF7 breast, 0.684 µM; in the assay with SF-539 CNS it was 0.239 µM; with SN12C renal, 0.184 µM.
On to `COc1ccc2[nH]cc(-c3nc(-c4c[nH]c5ccncc45)cs3)c2c1`, for which the GI50 in the assay on UACC-62 melanoma was 1.78 µM; in the assay with OVCAR-4 ovarian it was 2.94 µM; in the assay on HCT-15 colon, 1.95 µM; in the assay with SK-MEL-28 melanoma, 1.94 µM; in the assay with U251 CNS, 1.91 µM; in the assay on OVCAR-8 ovarian, 2.37 µM. Besides, the GI50 was 1.97 µM in the assay on SNB-19 CNS, 1.66 µM in the assay on MCF7 breast, 1.64 µM in the assay with SF-539 CNS and 1.83 µM with SN12C renal. Besides, the TGI with UACC-62 melanoma was found to be 3.35 µM; in the assay with OVCAR-4 ovarian it was 8.85 µM; with HCT-15 colon, 4.29 µM; in the assay on SK-MEL-28 melanoma, 3.44 µM; in the assay with U251 CNS it was 3.67 µM; in the assay with OVCAR-8 ovarian, 6.05 µM. Moreover, the TGI in the assay on SNB-19 CNS was 3.8 µM; in the assay on MCF7 breast it was 3.4 µM; with SF-539 CNS, 3.09 µM; in the assay on SN12C renal it was 3.61 µM.
Take `O=C1CC/C(=C\COc2ccc3ccc(=O)oc3c2)O1`: the GI50 in the assay on UACC-62 melanoma is 10.8 µM; in the assay on OVCAR-4 ovarian, 4.78 µM; with HCT-15 colon, 3.84 µM; with SK-MEL-28 melanoma it was 15.3 µM; in the assay with U251 CNS, 10.3 µM; in the assay with OVCAR-8 ovarian, 16.6 µM. The GI50 with SNB-19 CNS is 13.2 µM; in the assay with MCF7 breast, 3.61 µM; with SF-539 CNS it was 2.62 µM; with SN12C renal it was 10.3 µM. Besides, the TGI in the assay on UACC-62 melanoma is 24.7 µM; in the assay on OVCAR-4 ovarian it was 23.7 µM; in the assay on HCT-15 colon, 17.1 µM; in the assay with SK-MEL-28 melanoma, 32.7 µM; with U251 CNS it was 22.8 µM; with OVCAR-8 ovarian, 40.8 µM. Moreover, the TGI with SNB-19 CNS was determined as 36.8 µM; in the assay with MCF7 breast, 33.8 µM; in the assay on SF-539 CNS, 19.2 µM; in the assay with SN12C renal it was 28.8 µM.
Regarding `COc1cc2ncn(-c3cc(OCc4ccccc4S(C)(=O)=O)c(C#N)s3)c2cc1OC`, the GI50 in the assay with UACC-62 melanoma is above 25 µM; with OVCAR-4 ovarian, above 25 µM; in the assay with HCT-15 colon it was above 25 µM; in the assay on SK-MEL-28 melanoma, above 25 µM; in the assay with U251 CNS, above 22.3 µM; in the assay with OVCAR-8 ovarian, above 23.1 µM. Moreover, the GI50 is 15.1 µM in the assay on SNB-19 CNS, above 25 µM in the assay on MCF7 breast, above 25 µM in the assay with SF-539 CNS and above 25 µM in the assay on SN12C renal. For the same compound, the TGI in the assay on UACC-62 melanoma, in the assay on OVCAR-4 ovarian, with HCT-15 colon, in the assay on SK-MEL-28 melanoma, in the assay with U251 CNS and in the assay with OVCAR-8 ovarian was above 25 µM throughout. The TGI with SNB-19 CNS, in the assay on MCF7 breast, with SF-539 CNS and with SN12C renal was above 25 µM in each case.
`CN1CCC(n2[nH]c(-c3ccccc3)c(Cc3ccccc3)c2=O)CC1`: the TGI with UACC-62 melanoma, in the assay on OVCAR-4 ovarian, with HCT-15 colon, in the assay with SK-MEL-28 melanoma, in the assay with U251 CNS and in the assay with OVCAR-8 ovarian was above 100 µM in each case. Moreover, the TGI with SNB-19 CNS, with MCF7 breast, in the assay with SF-539 CNS and in the assay with SN12C renal was above 100 µM throughout.
